Results published in patent publication US20260091136A1, “USING ENHO GENE THERAPY TO TREAT CARDIOMETABOLIC DISEASE” (University of Pittsburgh-of the Commonwealth System of …, priority 2023, published 2026).
“Also recorded” adds a separate entry of the source.

Columns and labels:
[1] = In vivo stability of recombinant Adropin (clearance from circulation); conditions: within 1 hour
[2] = system: HFpEF mice; experiment: Body weight during four weeks of daily recombinant Adropin in HFpEF mice (Example 1); type: in vivo; conditions: for relative body weight (change per mouse between days 0 and 29): p-value<0.0001
Source text: The mouse HFpEF model used in this study was first reported in Schiattarella et al. (2019), Nature 568: 351-356 (PMID: 30971818). Adult C57BL/6N or C57BL/6J mice (i.e. C57BL/6 wildtype) are placed on a diet of either regular chow (“control”), or a high fat diet (60% fat) supplemented with 0.5 g/L L-NAME in drinking water (“HFpEF”) for 5-20 weeks.
(§1) Administration of Recombinant Adropin. Mice received low-fat chow or HFpEF diet for 10 weeks. For the following 4 weeks, the mice were maintained on respective diets and received daily injections of recombinant Adropin. Body weight was measured every day during the four weeks of treatment.

[3] = system: HFpEF mice; experiment: Cardiac function testing by ultrasonography in HFpEF mice (Example 1); type: in vivo; conditions: for diastolic function: HFpEF mice, daily Adropin treatment
Description: as §1
Cardiac function testing. After 2 weeks, mice were tested using ultrasonography to measure cardiac function and morphology. To determine systolic function and morphology, mice were tested using M-mode echocardiography to measure left ventricle (LV) mass, volume, wall thickness, and contraction (LV ejection fraction and fractional shortening). To determine diastolic function, mice were tested using Doppler to measure LV relaxation and filling (E/A ratio, E/e′ ratio, and isovolumetric relaxation time [IVRT]).

[4] = system: diabetic mice; conditions: cited from earlier work
[5] = system: HFpEF mice; experiment: Heart, lung and liver mass after four weeks of Adropin in HFpEF mice (Example 1); type: in vivo
Description: as §1

[6] = system: hearts isolated from chow-fed mice; conditions: cited from earlier work
[7] = system: HFpEF mice; experiment: Heart weight and heart histology (Masson's trichrome, WGA), cohort 2; type: in vivo, C57BL/6J mice; conditions: for cardiac fibrosis / cardiomyocyte hypertrophy: HFpEF mice following Adropin treatment, histology
Source text: (§2) Animal Care and Use. Male C57BL/6J 8-week-old mice were obtained from the Jackson Laboratory and maintained on chow for 4 weeks to acclimate to their new environment. Animals were housed in the University of Pittsburgh animal facility under standard conditions with ad libitum access to water and food and maintained on a constant 12-hour light/dark cycle. At 12 weeks of age, the mice were exposed to normal chow (Chow; 60% carbohydrate, 26% protein, 14% fat), or a combination of high-fat diet (HFD; 20% carbohydrate, 20% protein, 60% fat) plus No-nitro-L-arginine methyl ester (L-NAME: 0.5 g/L) supplemented in their drinking water after adjusting the pH to 7.4 with 1N NaOH to induce HFpEF [10]. For cohort 1, the mice were subject to the HFpEF diet for 15 weeks. For cohort 2, after 8 weeks of diet, mice were randomly assigned to a control or treatment group receiving daily intraperitoneal injections of either vehicle or recombinant adropin at 450 nmol/kg animal weight prepared in PBS with 0.1% BSA for the remaining 5 weeks of the study. L-NAME supplemented drinking water was changed weekly and adropin was made fresh and sterile filtered before each use.
Histology. Preparation and staining of all histological samples were conducted by the Pitt Biospecimen Core at the University of Pittsburgh. All mice were sacrificed, and tissue harvested for analysis within one hour of completion of the IPGTT study. The apex of the heart and right (cohort 1) or left (cohort 2) lobe of the liver was excised from each mouse following euthanasia, fixed in 10% buffered formalin phosphate overnight at shaking incubation, washed 3 times for 5 min with 1× phosphate-buffered saline (PBS), and then transferred to 70% ethanol. Samples were then embedded in paraffin, sectioned into 4 μm slides and stained with hematoxylin and eosin (H&E), wheat germ agglutinin (WGA) or Masson's Trichrome for analysis. The NAFLD/MAFLD activity score (NAS) was obtained based on methods established by the Pathology Committee of the Non-alcoholic Steatohepatitis (NASH) Clinical Research Network. Liver pathology scoring was performed in a blinded independent fashion. NAS consisted of separate category scores which included steatosis (0-3), where 0=0-5%, 1=6-33%, 2=34-66%, and 3=67-100% of hepatocytes positive for steatosis; lobular inflammation (0-3), where 0=no foci, 1=[…], 2=2-4 foci and 3=greater than 4 foci all per 200× field; and hepatocellular ballooning (0-2), where 0=none present, 1=few and 2=many/prominent. The final NAS represents a sum of the three category scores. Histology sections were visualized with the Evos FL Auto 2 Microscope, observed changes in structure were quantified using ImageJ software and representative images are shown.

[8] = system: HFpEF mice; experiment: Glucose tolerance testing (IPGTT) in HFpEF mice (Example 1); type: in vivo; conditions: for glucose tolerance: HFpEF mice, four weeks of Adropin treatment
Description: as §1
Glucose tolerance testing. Glucose tolerance was tested (IPGTT), following a 2 g/kg bolus of glucose. Blood was collected at 15 mins, 30 mins, 45 mins, 60 mins, 90 mins, and 120 mins, and measured using a standard glucometer (Bayer Next EZ). Time-courses for blood glucose uptake will be generated and analyzed for significance using standard statistical tests.

[9] = system: HFpEF mice; experiment: Liver H&E histology, NAFLD/MAFLD activity score (NAS), cohort 2; type: in vivo, C57BL/6J mice; conditions: adropin-treated vs HFpEF mice; non-significant
Source text: as §2
Histology. […] Histology sections were visualized with the Evos FL Auto 2 Microscope, observed changes in structure were quantified using ImageJ software and representative images are shown.

[10] = 2 weeks of Adropin, vs HFpEF mice without treatment
[11] = 2 weeks of Adropin, vs HFpEF mice without treatment, p-value <0.05
[12] = IPGTT AUC analysis, p-value <0.05

Substance: Adropin: recombinant Adropin peptide hormone encoded by the ENHO gene; full-length (SEQ ID NO: 1) or cleaved product of amino acids 34-76 (SEQ ID NO: 2) (CHSRSADVDSLSESSPNSSPGPCPEKAPPPQKPSHEGSYLLQP)
- peptide cleared from circulation [1]: 96%
- relative body weight (change per mouse between days 0 and 29) ([2]; HFpEF mice that received Adropin vs HFpEF mice without treatment): significantly lower
- relative body weight (change per mouse between days 0 and 29) ([2]; HFpEF mice that received Adropin vs mice on control chow diet): significantly greater
- body weight ([2]; HFpEF mice which received Adropin versus HFpEF mice which did not, daily Adropin for four weeks, beginning on day 8): reduced; also recorded: decrease
- average cardiac output [3, 10]: greater
- average ejection fraction [3, 10]: greater
- isovolumetric relaxation time (IVRT) [3, 11]: significantly lower
- left ventricle myocardial performance index (LV MPI) [3, 11]: significantly lower
- diastolic function [3]: improves
- diastolic function ([3]; listed as Recombinant Adropin): significant increase
- diastolic function ([3]; listed as recombinant Adropin): improved
- average LV mass ([3]; following 2 weeks of Adropin, vs HFpEF mice without treatment): lower
- vascular stiffness ([4]; diet-induced obesity, previous study [9]): reduced
- hepatocellular injury in NAFLD/MAFLD ([4]; exogenous adropin treatment, recent studies [34]): alleviates
- physical activity ([4]; previous studies [6-8]): improved
- hepatic steatosis and injury ([4]; previous studies [7, 34]): attenuated
- glucose oxidation in the hearts of diabetic mice ([4]; previous work from our group): restores
- liver glucose production in diabetic mice ([4]; previous work from our group): decreases
- lung or liver mass ([5]; after 4 weeks): no differences were observed
- average LV mass (FIG. 3A; cardiac hypertrophy) ([5]; following 4 weeks of Adropin, vs HFpEF mice without treatment): lower; also recorded: reduces
- cardiac contractility ([6]; acute adropin treatment, hearts isolated from chow-fed mice [32]): increase
- effect on cardiac contractility after exposure to a long-term HFD ([6]; ex vivo perfusion studies [33]): lost
- increase in normalized heart weight to tibia length ([7]; HFpEF increase vs chow, in adropin-treated animals): absent
- cardiac fibrosis [7]: prevented the development; also recorded: reduced
- cardiomyocyte hypertrophy [7]: prevented the development; also recorded: reduced
- cardiac fibrosis ([7]; listed as adropin): reversed
- cardiomyocyte hypertrophy ([7]; listed as adropin): reversed
- average blood glucose, IPGTT ([8]; HFpEF mice that received Adropin, by the 120 minute timepoint): gradually decreased to match control chow mice
- glucose tolerance [8]: increase
- glucose tolerance ([8]; listed as Recombinant Adropin): significant increase
- blood glucose AUC of HFpEF mice that received Adropin relative to control chow mice [8, 12]: significantly greater
- blood glucose AUC of HFpEF mice without Adropin relative to HFpEF mice that received Adropin [8, 12]: significantly greater
- decrease in liver NAS [9]: ~7%
